According to patent US10047105B2, “Gyrase inhibitors” (Merck Sharp & Dohme Corp., priority 2009, dated 2018):
Values after ≈ are worked out from the molar mass of the structure shown.

Key:
S. aureus ATCC 13709 = test: MIC, antibacterial potency, S. aureus; format: cell-based; settings: S. aureus
S. pneumoniae ATCC 51916 = test: MIC, S. pneumoniae; format: cell-based; settings: S. pneumoniae

SMILES | MIC, SA (S. aureus ATCC 13709) [µg/mL] | MIC Spn52 (S. pneumoniae ATCC 51916) [µg/mL]
CCc1[nH]c2nc(Sc3cnc4nccnc4c3)nc(N3CC4CNCC4C3)c2c1Cl.O=C(O)C(F)(F)F (stereo not shown) [700,565] | 2 | 4
CCc1[nH]c2nc(Sc3cnc4nccnc4c3)nc(N3CC4CNCC43)c2c1Cl.O=C(O)C(F)(F)F (stereo not shown) [700,566] | > 64 | 64
CCc1[nH]c2nc(Sc3cnc4nccnc4c3)nc(N3CCC(NC)C3)c2c1Cl.O=C(O)C(F)(F)F (stereo not shown) [700,567] | 7 | 4
CCc1[nH]c2nc(Sc3cnc4nccnc4c3)nc(N3C[C@H]4CCCN[C@H]4C3)c2c1Cl.O=C(O)C(F)(F)F [700,568] | ≤ 0.5 | 2
CCc1[nH]c2nc(Sc3cnc4nccnc4c3)nc(N3CCCNCC3)c2c1Cl.O=C(O)C(F)(F)F [700,569] | 8 | 4
CCc1[nH]c2nc(Sc3cnc4nccnc4c3)nc(N(C)C[C@@H](O)c3cccc(O)c3)c2c1Cl.O=C(O)C(F)(F)F [700,570] | 1 | 8
CCc1[nH]c2nc(Sc3cnc4nccnc4c3)nc(N3CC4CN(C(=O)OC(C)(C)C)C4C3)c2c1Cl (stereo not shown) [700,571] | 8 (≈ 14.8 µM) | 8 (≈ 14.8 µM)
CCOc1nc(Nc2cnc3nccnc3c2)nc2[nH]c(CC)c(Br)c12.O=C(O)C(F)(F)F [700,572] | 4 | > 8
CCc1[nH]c2nc(Nc3cnc4nccnc4c3)nc(N3CC(O)C3)c2c1Cl.O=C(O)C(F)(F)F [700,573] | > 64 | > 64
CCc1[nH]c2nc(Sc3cncnc3)nc(N3CC(N)C3)c2c1Cl [700,574] | 4 (≈ 11.1 µM) | 16 (≈ 44.2 µM)
CCc1[nH]c2nc(Sc3ccc4c(NCC(C)O)ncnc4c3)nc(N3CCC(N)C3)c2c1Cl (stereo not shown) [700,575] | 8 (≈ 16 µM) | 16 (≈ 32.1 µM)
CCc1[nH]c2nc(Sc3ccc4c(NC)ncnc4c3)nc(N3CCC(N)C3)c2c1Cl (stereo not shown) [700,576] | 8 (≈ 17.6 µM) | 16 (≈ 35.2 µM)
O=C(O)C(F)(F)F.OCCc1[nH]c2nc(Oc3cccnc3)nc(Oc3cncnc3)c2c1Cl [700,577] | > 64 | > 64
CCc1[nH]c2nc(Oc3cncc(OC)c3)nc(Oc3cncc(OC)c3)c2c1Cl.O=C(O)C(F)(F)F [700,578] | ≤ 0.5 | 1
C=CCc1nc(Cc2cccnc2)nc2[nH]c(CC)c(Cl)c12 [700,584] | 8 (≈ 25.6 µM) | 32 (≈ 102 µM)
CCc1[nH]c2nc(Cc3cccnc3)nc(N3CCC(CN)CC3)c2c1Cl [700,585] | > 64 | > 64
CCc1[nH]c2nc(Cc3cccnc3)nc(N3CCC(C(C)N4CCOCC4)CC3)c2c1Cl (stereo not shown) [700,586] | > 64 | > 64
CCc1[nH]c2nc(Cc3cccnc3)nc(N3CCC(N4CCOCC4)C3)c2c1Cl (stereo not shown) [700,587] | 64 (≈ 150 µM) | > 64
CCc1[nH]c2nc(Sc3cnc4nccnc4c3)nc(N3CCC[C@@H](N)C3)c2c1Cl [700,588] | 8 (≈ 18.1 µM) | 8 (≈ 18.1 µM)
CCc1[nH]c2nc(Sc3cnc(N4CCC4)c(C#N)c3)nc(N3CCC(N)C3)c2c1Cl (stereo not shown) [700,589] | 2 (≈ 4.4 µM) | 8 (≈ 17.6 µM)
CCc1[nH]c2nc(Sc3cnc(N4CC(O)C4)c(C#N)c3)nc(N3CCC(N)C3)c2c1Cl (stereo not shown) [700,590] | 4 (≈ 8.49 µM) | 16 (≈ 34 µM)
CCc1[nH]c2nc(Oc3ccc(OC)nc3)nc(Oc3ccc(OC)nc3)c2c1Br.O=C(O)C(F)(F)F [700,591] | 2 | > 64
CCc1[nH]c2nc(Oc3ccc(OC)nc3)nc(Oc3ccc(OC)nc3)c2c1Cl.O=C(O)C(F)(F)F [700,592] | > 64 | 4
CCc1[nH]c2nc(Sc3cnc4nccnc4c3)nc(N3CC[C@@H](C)[C@@H](N)C3)c2c1Cl [700,595] | 8 (≈ 17.6 µM) | 8 (≈ 17.6 µM)
CCc1[nH]c2nc(Sc3ccc(S(=O)(=O)NCCN4CCOCC4)cc3)nc(N3CC(N)C3)c2c1Cl [700,596] | 32 (≈ 58 µM) | 32 (≈ 58 µM)
CCc1[nH]c2nc(Sc3ccc4c(N5CC(N)C5)ncnc4c3)nc(N3CCC(N)C3)c2c1Cl (stereo not shown) [700,597] | 16 (≈ 32.3 µM) | 16 (≈ 32.3 µM)
CCc1[nH]c2nc(Oc3cccnc3)nc(Oc3cccnc3)c2c1Br.O=C(O)C(F)(F)F [700,598] | 1 | 2

SMILES | MIC, SA (S. aureus ATCC 13709) [µg/mL] | MIC Spn52 (S. pneumoniae ATCC 51916) [µg/mL]
CCc1[nH]c2nc(Nc3cnc4c(c3)nnn4C)nc(OC)c2c1Br.O=C(O)C(F)(F)F [700,599] | ≤ 0.5 | 2
CCOc1nc(Nc2cnc3c(c2)nnn3C)nc2[nH]c(CC)c(Br)c12.O=C(O)C(F)(F)F [700,600] | > 8 | > 8
CCc1[nH]c2nc(Sc3cnc4nccnc4c3)nc(N3CC(N(C)C(=O)OC(C)(C)C)C3)c2c1Cl.O=C(O)C(F)(F)F [700,601] | ≤ 0.5 | 2
CCc1[nH]c2nc(Sc3cnc4nccnc4c3)nc(N3CC(CN(C)C)C3)c2c1Cl.O=C(O)C(F)(F)F.O=C(O)C(F)(F)F [700,602] | 4 | 4
CCc1[nH]c2nc(Sc3cnc4nccnc4c3)nc(N3CC(N(C)C)C3)c2c1Cl.O=C(O)C(F)(F)F.O=C(O)C(F)(F)F [700,603] | 4 | 8
CCc1[nH]c2nc(Sc3cnc4nccnc4c3)nc(N3CC(N4CCCC4)C3)c2c1Cl.O=C(O)C(F)(F)F.O=C(O)C(F)(F)F [700,604] | 4 | 8
CCc1[nH]c2nc(Sc3cnc4nccnc4c3)nc(N3CC(N4CCCCC4)C3)c2c1Cl.O=C(O)C(F)(F)F.O=C(O)C(F)(F)F [700,605] | 4 | 8
CCc1[nH]c2nc(Sc3cnc4nccnc4c3)nc(N3CC(N4CCOCC4)C3)c2c1Cl.O=C(O)C(F)(F)F.O=C(O)C(F)(F)F [700,606] | 2 | 4
CCc1[nH]c2nc(Sc3cnc4nccnc4c3)nc(N3CC(C)(CN)C3)c2c1Cl.O=C(O)C(F)(F)F.O=C(O)C(F)(F)F [700,607] | 8 | 16
CCc1[nH]c2nc(Sc3cnc4nccnc4c3)nc(N3CC4C(C3)C4NC(=O)OC(C)(C)C)c2c1Cl.O=C(O)C(F)(F)F.O=C(O)C(F)(F)F (stereo not shown) [700,608] | 1 | 2
CCc1[nH]c2nc(Sc3ccc4nnc(C(=O)NC[C@H](C)O)nc4c3)nc(N3CC(N)C3)c2c1Cl [700,611] | 2 (≈ 3.89 µM) | 8 (≈ 15.6 µM)
CCc1[nH]c2nc(Cl)nc(Oc3ccc4nccnc4c3)c2c1Cl [700,612] | > 64 | > 64
CCc1[nH]c2nc(Oc3ccc4nccnc4c3)nc(Oc3ccc4nccnc4c3)c2c1Cl [700,613] | ≤ 0.5 | 4 (≈ 8.51 µM)
CCc1[nH]c2nc(Oc3cnc4c(cnn4C)c3)nc(Oc3cnc4c(cnn4C)c3)c2c1Cl [700,614] | 2 (≈ 4.2 µM) | 16 (≈ 33.6 µM)
CCc1[nH]c2nc(Oc3cnc4c(cnn4C)c3)nc(Oc3cccnc3)c2c1Cl [700,615] | ≤ 0.5 | 4 (≈ 9.48 µM)
CCc1[nH]c2nc(Sc3cnc4nccnc4c3)nc(N3CC[C@@H](N)C3)c2c1Cl [700,618] | ≤ 0.5 | 2 (≈ 4.68 µM)
CCc1[nH]c2nc(Sc3ccc4nnc(C(=O)NCCCN5CCN(C)CC5)nc4c3)nc(N3CC[C@@H](N)C3)c2c1Cl [700,619] | 32 (≈ 52.4 µM) | 32 (≈ 52.4 µM)
CCc1[nH]c2nc(Sc3ccc4c(N5CC(N)C5)cc(C(=O)O)nc4c3)nc(N3CC[C@@H](N)C3)c2c1Cl [700,620] | 32 (≈ 59.4 µM) | > 64
CCc1[nH]c2nc(Oc3cccnc3)nc(Oc3cncnc3)c2c1Br.O=C(O)C(F)(F)F [700,621] | 4 | 8
CCc1[nH]c2nc(Sc3cc(=O)[nH]c(=O)[nH]3)nc(N3CC4CNC4C3)c2c1Cl.O=C(O)C(F)(F)F (stereo not shown) [700,627] | 4 | 16
CCc1[nH]c2nc(Sc3cc(=O)n(C)c(=O)[nH]3)nc(N3CC4CNC4C3)c2c1Cl.O=C(O)C(F)(F)F (stereo not shown) [700,628] | 2 | 8
CCc1[nH]c2nc(Sc3cnc4nccnc4c3)nc(N3CC(C)(NC(=O)OC(C)(C)C)C3)c2c1Cl.O=C(O)C(F)(F)F [700,629] | ≤ 0.5 | 2
CCc1[nH]c2nc(Sc3cnc4nccnc4c3)nc(N3CC(C)(N)C3)c2c1Cl.O=C(O)C(F)(F)F.O=C(O)C(F)(F)F [700,630] | 4 | 8
CCc1[nH]c2nc(Oc3cncnc3)nc(Oc3cncc(OC)c3)c2c1Cl.O=C(O)C(F)(F)F [700,648] | ≤ 0.5 | 2
CCc1[nH]c2nc(Oc3cnc4ccoc4c3)nc(Oc3cncc(OC)c3)c2c1Cl.O=C(O)C(F)(F)F [700,649] | ≤ 0.5 | 2
CCc1[nH]c2nc(Oc3cnc4ccoc4c3)nc(Oc3cnc4ccoc4c3)c2c1Cl.O=C(O)C(F)(F)F [700,650] | ≤ 0.5 | 1
